Measured values as given in ChEMBL document CHEMBL1201862, “PubChem BioAssay data set” (2004).
Activity calls are given as the source filed them.

Legend:
Caspase-6 = biological target: T1, Caspase-6 (Homo sapiens, UniProt P55212); experiment: human caspase-6 inhibitors, dose response, biochemical, VEID-R110 fluorescence, cherry-pick (AID 720632)
T1 sequence (P55212 whole entry): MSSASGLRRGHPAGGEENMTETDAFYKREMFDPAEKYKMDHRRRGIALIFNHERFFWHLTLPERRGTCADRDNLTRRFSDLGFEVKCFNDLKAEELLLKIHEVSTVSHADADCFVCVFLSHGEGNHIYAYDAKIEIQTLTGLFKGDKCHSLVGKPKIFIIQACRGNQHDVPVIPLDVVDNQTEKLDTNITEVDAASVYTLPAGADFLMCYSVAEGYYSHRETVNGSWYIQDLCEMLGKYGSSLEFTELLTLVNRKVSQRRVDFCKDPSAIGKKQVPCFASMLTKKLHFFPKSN

Coagulation factor XII = biological target: T2, Coagulation factor XII (Homo sapiens, UniProt P00748); assay type: functional;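 note: activated factor XIIa alpha cleaving a fluorogenic AMC peptide substrate; inhibitor potency from loss of enzyme activity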
T2 sequence (P00748 whole entry): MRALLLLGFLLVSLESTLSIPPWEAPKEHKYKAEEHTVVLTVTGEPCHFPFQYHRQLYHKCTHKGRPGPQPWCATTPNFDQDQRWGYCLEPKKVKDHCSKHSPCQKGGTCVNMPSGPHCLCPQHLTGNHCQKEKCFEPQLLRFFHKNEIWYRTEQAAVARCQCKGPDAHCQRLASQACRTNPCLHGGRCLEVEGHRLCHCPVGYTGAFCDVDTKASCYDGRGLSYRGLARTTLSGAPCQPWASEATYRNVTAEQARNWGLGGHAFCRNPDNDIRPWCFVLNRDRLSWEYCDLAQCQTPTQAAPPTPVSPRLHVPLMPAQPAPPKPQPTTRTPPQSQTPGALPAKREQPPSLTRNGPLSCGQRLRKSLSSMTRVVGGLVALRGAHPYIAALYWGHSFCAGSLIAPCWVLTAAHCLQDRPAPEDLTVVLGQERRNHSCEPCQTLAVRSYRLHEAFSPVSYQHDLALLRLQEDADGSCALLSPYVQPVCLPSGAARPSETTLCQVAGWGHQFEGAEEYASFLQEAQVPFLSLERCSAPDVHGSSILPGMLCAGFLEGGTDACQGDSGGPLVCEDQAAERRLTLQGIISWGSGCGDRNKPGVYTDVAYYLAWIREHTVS

[1] = THP-1 cell cytotoxicity, dose response, cytotoxicity control for Vif-APOBEC3G degradation inhibitor project, THP-1 cells (AID 1117359); assay type: functional; conditions: Human immunodeficiency virus 1, THP-1
Cytochrome P450 2D6 = Cytochrome P450 2D6 (Homo sapiens, UniProt P10635);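 note: CYP2D6 member of a cytochrome P450 panel assay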
Chain of Cytochrome P450 2D6 (P10635 whole entry): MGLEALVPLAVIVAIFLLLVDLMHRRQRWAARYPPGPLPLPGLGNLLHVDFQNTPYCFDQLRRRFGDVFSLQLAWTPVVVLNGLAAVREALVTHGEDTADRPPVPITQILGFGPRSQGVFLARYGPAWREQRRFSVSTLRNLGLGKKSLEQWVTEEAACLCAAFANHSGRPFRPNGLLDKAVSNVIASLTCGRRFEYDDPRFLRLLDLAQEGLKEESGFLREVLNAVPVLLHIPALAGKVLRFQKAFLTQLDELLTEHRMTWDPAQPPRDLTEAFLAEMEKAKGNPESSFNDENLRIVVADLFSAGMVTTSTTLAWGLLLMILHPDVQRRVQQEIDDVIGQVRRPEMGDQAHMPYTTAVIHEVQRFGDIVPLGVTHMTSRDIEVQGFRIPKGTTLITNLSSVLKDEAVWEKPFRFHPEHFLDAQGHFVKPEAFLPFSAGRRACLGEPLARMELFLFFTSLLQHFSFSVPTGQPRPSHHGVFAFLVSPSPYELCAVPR

[2] = A cytotoxicity screen of small molecule inhibitors of the PhoP region in Salmonella typhi identified in the primary screen. [Related pubchem assays: 1850, 1864, 1985 ]; assay type: functional
[3] = HEp-2 cell cytotoxicity, dose response, cytotoxicity control for RSV inhibitor project, HTS (AID 2410); assay type: functional; conditions: human respiratory syncytial virus
[4] = cytotoxicity toward NIH3T3 fibroblasts, dose response, counter-screen, cell-based, ATP luminescence, mouse fibroblasts (AID 2010); assay type: functional;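 note: cells exposed to compound for about 90 hours before reading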
[5] = inhibitors of intracellular T. cruzi replication, confirmation, NIH3T3 host cells, beta-gal luminescence (AID 2044); assay type: functional, cell-based;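 note: intracellular parasites grown in NIH/3T3 mouse fibroblasts as host cells; luminescent beta-galactosidase reporter signal from transgenic T. cruzi replicating inside host cells; inhibitors lower the luminescence signal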
Caspase-3 = biological target: T3, Caspase-3 (Homo sapiens, UniProt P42574); assay type: functional;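 note: Dose-response selectivity test against caspase-3 for candidate inhibitors of sentrin-specific proteases (SENPs)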
T3 sequence (P42574 whole entry): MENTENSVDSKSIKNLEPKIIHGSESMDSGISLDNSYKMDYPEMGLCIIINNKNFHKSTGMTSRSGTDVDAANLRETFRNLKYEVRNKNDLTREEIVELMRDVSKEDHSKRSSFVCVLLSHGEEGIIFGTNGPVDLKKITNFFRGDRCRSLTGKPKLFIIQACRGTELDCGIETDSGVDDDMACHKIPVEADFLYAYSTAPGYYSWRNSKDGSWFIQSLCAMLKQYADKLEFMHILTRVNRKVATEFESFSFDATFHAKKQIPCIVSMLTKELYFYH

[6] = biological target: T4, Sentrin-specific protease 7 (Homo sapiens, UniProt Q9BQF6); assay type: functional;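 note: Luminescence-based dose-response confirmation of ultra-high-throughput screening hits, measuring inhibition of SENP7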
T4 sequence (Q9BQF6 whole entry): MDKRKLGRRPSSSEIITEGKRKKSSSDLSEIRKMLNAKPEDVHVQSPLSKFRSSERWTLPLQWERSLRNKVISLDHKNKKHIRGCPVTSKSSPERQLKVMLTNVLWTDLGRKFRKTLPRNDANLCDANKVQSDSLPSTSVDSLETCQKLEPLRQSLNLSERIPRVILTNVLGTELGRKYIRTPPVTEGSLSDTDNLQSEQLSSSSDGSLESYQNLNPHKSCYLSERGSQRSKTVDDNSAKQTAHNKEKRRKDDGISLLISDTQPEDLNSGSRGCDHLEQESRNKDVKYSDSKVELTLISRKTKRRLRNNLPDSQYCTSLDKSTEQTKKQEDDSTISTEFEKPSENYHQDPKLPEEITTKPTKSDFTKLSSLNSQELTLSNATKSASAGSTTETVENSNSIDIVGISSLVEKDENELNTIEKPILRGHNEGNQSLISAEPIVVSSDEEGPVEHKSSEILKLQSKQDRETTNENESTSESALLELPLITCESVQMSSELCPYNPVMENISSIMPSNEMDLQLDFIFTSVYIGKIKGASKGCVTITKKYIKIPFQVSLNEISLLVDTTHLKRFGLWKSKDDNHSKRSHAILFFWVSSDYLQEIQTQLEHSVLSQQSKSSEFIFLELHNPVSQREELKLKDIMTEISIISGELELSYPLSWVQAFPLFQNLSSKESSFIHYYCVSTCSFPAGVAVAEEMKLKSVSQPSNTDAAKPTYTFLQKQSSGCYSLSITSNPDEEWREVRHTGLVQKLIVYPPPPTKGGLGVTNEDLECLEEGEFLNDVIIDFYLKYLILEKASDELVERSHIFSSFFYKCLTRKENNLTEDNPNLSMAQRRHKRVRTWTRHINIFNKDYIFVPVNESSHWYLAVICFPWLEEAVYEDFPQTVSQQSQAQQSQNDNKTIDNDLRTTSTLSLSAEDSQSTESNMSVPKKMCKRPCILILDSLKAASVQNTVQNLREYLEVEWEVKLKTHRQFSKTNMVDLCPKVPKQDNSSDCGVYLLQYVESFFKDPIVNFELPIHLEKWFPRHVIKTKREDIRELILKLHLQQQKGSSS

[7] = biological target: T5, Sentrin-specific protease 6 (Homo sapiens, UniProt Q9GZR1); assay type: functional;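 note: Luminescence-based dose-response confirmatory assay of SENP6 inhibition, following up an ultra-high-throughput screen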
T5 sequence (Q9GZR1 whole entry): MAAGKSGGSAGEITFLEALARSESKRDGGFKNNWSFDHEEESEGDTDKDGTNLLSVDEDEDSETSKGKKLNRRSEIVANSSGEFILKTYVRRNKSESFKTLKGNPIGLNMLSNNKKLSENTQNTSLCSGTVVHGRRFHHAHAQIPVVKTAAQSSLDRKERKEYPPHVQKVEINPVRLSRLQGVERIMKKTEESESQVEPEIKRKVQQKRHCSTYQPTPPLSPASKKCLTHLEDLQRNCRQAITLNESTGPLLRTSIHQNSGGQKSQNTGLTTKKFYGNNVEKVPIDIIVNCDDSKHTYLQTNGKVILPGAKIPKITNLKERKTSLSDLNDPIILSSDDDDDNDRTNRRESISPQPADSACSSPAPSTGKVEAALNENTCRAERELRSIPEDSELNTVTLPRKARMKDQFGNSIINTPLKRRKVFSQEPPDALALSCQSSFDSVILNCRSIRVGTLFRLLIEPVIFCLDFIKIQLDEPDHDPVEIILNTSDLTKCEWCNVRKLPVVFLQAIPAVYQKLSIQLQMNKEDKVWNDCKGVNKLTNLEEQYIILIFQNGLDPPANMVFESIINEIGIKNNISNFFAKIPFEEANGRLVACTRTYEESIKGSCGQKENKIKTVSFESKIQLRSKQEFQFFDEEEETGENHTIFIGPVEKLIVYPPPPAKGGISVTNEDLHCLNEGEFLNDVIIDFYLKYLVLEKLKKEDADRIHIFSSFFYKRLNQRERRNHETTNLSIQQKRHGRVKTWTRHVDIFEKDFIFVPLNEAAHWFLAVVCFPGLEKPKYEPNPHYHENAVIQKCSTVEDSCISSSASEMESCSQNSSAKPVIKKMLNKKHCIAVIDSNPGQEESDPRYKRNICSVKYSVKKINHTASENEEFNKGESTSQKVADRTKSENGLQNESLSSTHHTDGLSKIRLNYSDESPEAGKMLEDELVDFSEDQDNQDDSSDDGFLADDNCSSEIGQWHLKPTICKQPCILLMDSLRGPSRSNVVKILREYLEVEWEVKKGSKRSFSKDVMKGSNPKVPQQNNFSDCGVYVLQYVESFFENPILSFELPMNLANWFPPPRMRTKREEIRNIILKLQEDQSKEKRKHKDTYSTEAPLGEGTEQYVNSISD

[8] = biological target: T6, Sentrin-specific protease 8 (Homo sapiens, UniProt Q96LD8); assay type: functional;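 note: luminescence read-out of SENP8 inhibition, dose-response confirmation following an ultra-high-throughput screen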
T6 sequence (Q96LD8 whole entry): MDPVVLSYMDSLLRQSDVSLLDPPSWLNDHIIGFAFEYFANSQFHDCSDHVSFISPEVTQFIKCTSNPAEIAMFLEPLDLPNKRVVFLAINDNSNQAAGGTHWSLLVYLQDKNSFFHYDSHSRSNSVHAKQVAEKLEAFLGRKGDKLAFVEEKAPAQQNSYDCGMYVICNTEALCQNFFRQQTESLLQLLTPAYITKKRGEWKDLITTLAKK

[9] = cytotoxicity in OVCAR8 ovarian cancer cells, dose response, PAX8 project, cell-based, plate reader, dry powder samples (AID 743197); assay type: functional; conditions: OVCAR-8
[10] = NIH:OVCAR-3 ovarian cancer cell cytotoxicity, dose response, PAX8 inhibitor project, plate reader, dry powder samples (AID 743044); assay type: functional, cell-based
Paired box protein Pax-8 = Paired box protein Pax-8 (Homo sapiens, UniProt Q06710); experiment: inhibitors of PAX8-driven TPO luciferase reporter, dose response, RMG-I cells, cherry-pick (AID 687027); assay type: functional, cell-based;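 note: luciferase reporter driven by Pax8 target thyroperoxidase promoter measured by SteadyGlo luminescence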
Chain of Paired box protein Pax-8 (Q06710 whole entry): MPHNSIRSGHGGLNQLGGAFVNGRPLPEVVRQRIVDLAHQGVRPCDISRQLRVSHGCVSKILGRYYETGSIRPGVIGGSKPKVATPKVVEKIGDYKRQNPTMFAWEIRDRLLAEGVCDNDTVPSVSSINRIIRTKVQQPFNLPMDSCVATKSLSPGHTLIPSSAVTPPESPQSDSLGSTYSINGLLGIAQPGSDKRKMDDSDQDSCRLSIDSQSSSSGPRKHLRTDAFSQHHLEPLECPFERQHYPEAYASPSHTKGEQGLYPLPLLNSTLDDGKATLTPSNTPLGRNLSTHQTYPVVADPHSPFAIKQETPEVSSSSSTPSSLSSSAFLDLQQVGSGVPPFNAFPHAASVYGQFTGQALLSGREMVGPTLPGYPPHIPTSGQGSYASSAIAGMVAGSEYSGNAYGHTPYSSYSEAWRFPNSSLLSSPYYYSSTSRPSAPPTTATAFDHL

[11] = non-specific cell cytotoxicity, dose response, cytotoxicity control for PAX8 inhibitor project, plate reader, dry powder samples (AID 743021); assay type: functional, cell-based
[12] = off-target signal loss in HeLa-CEM21 co-culture – HeLa F-luc CTL cells, cherry-picked, counter-screen for HIV-1 Env fusion inhibitor project, dose response (AID 652040); assay type: functional, cell-based;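 note: potency for signal decrease marking cytotoxic or nonspecific inhibition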
[13] = inhibitors of clade B AD8 Env fusion, dose response, cell-based, cherry-pick (AID 652062); assay type: functional;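 note: luciferase signal from cell-cell fusion driven by HIV-1 clade B AD8 Env; potency is for inhibitors of fusion seen as a drop in luminescence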
[14] = ZM109 Env clade C HIV-1 fusion inhibitors, dose response, HeLa effector, CEM target cells, luciferase, cherry-pick (AID 652058); assay type: functional, cell-based
[15] = inhibitors of HIV Env-driven cell fusion, dose response, cherry-pick (AID 652057); assay type: functional, cell-based

O=c1c(-c2cc(O)[nH]n2)c(O)c2ccccc2n1Cc1ccccc1
AC50 (Caspase-6): 19.7 µM (active)

O=C(OCC(=O)N1CCCc2ccccc21)c1ccc(Cl)nc1
IC50 (Coagulation factor XII): > 50 µM (inactive)

CCC(=O)OCCn1c(=O)c2cc3c(=O)n(CCOC(=O)CC)c(=O)c3cc2c1=O
IC50 (Coagulation factor XII): > 50 µM (inactive)

Cc1ccc(NC(=O)/C(CN(C)C)=N\O)cc1
IC50 (Coagulation factor XII): > 50 µM (inactive)

O=C1Cc2ccccc2C(=O)N1Nc1ccccc1
AC50 (Caspase-6): 51.5 µM (active)

Cc1ccc(S(=O)(=O)N(CC(=O)NCCC2=CCCCC2)Cc2ccccc2F)cc1
CC50 [1]: > 40 µM (active) | AC50 (Cytochrome P450 2D6): 20 µM (inconclusive)

CCn1nnnc1SCC(=O)c1cc(Cl)ccc1OC
EC50 [2]: > 50 µM (active)

O=C(Nc1ccc2[nH]c(-c3ccc(Br)o3)nc2c1)c1cccs1
CC50 [3]: 24 µM (active) | EC50 [4]: > 60 µM (not active) | EC50 [5]: 3.18 µM (active) | EC50 [2]: > 50 µM (active)

Cc1ccnc(Nc2nc(-c3ccccc3)cs2)c1
IC50 (Caspase-3): 13.1 µM (active) | IC50 [6]: 1.78 µM (active) | IC50 [7]: 7.16 µM (active) | IC50 [8]: 3.93 µM (active)

COCC1CCCN(Cc2c[nH]nc2-c2cc3ccccc3o2)C1 (stereo not drawn)
EC50 [2]: > 50 µM (active)

O=C(C[C@@H]1C[C@@H]2c3cc(NS(=O)(=O)c4ccc(F)cc4)ccc3O[C@@H]2[C@@H](CO)O1)NCc1ccc(Oc2ccccc2)cc1
AC50 [9]: 17.9 µM (active) | AC50 [10]: 22.1 µM (active) | AC50 (Paired box protein Pax-8): 6.15 µM (active) | AC50 [11]: 27.8 µM (active)

O=C(O)c1c2c(nc3ccc(Cl)cc13)CCC2
AC50 (Caspase-6): 28.8 µM (active)

COc1ccc(-c2cc(-c3nnc(COC(=O)CC4CC5CCC4C5)o3)c3ccccc3n2)cc1OC (stereo not drawn)
IC50 (Coagulation factor XII): > 50 µM (inactive)

CCc1ccc([C@H]2[C@@H]3C(=O)C[C@@H]4C(=O)N(C5CCCCC5)C(=O)[C@@H]4[C@@H]3CN2S(=O)(=O)c2ccc(C)cc2)cc1
AC50 [12]: 2.53 µM (active) | AC50 [13]: 2.15 µM (active) | AC50 [14]: 1.99 µM (active) | AC50 [15]: 1.09 µM (active)

Cc1c(C=O)c2ccccn2c1C(=O)c1ccccc1
EC50 [2]: > 50 µM (active)

COC(=O)c1ccccc1NC(=O)Nc1cc(C)ccn1
IC50 (Coagulation factor XII): > 50 µM (inactive)

CSCCC(NS(=O)(=O)c1ccc2c(c1)oc(=O)n2C)C(=O)NC1CCCc2ccccc21 (stereo not drawn)
AC50 [12]: 7.6 µM (active) | AC50 [13]: 8.37 µM (active) | AC50 [14]: 3.16 µM (active) | AC50 [15]: 4.21 µM (active)
